Source: the supplement of paper PMC4862054

Legend:
Conditions in all cases: incubation time: 72 h
[1] = test system: MDA-MB-453; test: normalised response (% of control), CellTiter-Glo; higher = more viable cells (100 = DMSO, 0 = benzethonium chloride kill control)
Outline: (§1)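 Breast cancer cell lines in 20 µl suspension were added to 384-well plates containing compound at 5 concentrations, spaced in 10-fold steps across a 10,000-fold range chosen for each compound, and incubated for 72 h. CellTox Green fluorescence was read at 485/520 nm, followed by CellTiter-Glo luminescence after 10 min at room temperature. Signals on each plate were normalised so that 0.1 % DMSO equals 100 and a positive kill control equals 0. Every value in the table is the normalised signal at one concentration of the series.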

[2] = test system: MDA-MB-231; test: as above
Outline: as §1

[3] = test system: SK-BR-3; test: as above
Outline: as §1

[4] = test system: HCC1937; test: as above
Outline: as §1

[5] = test system: Hs578T; test: as above
Outline: as §1

[6] = test system: MDA-MB-436; test: as above
Outline: as §1

[7] = test system: CAL-85-1; test: as above
Outline: as §1

[8] = test system: CAL-120; test: as above
Outline: as §1

[9] = test system: BT-474; test: as above
Outline: as §1

[10] = test system: HCC1143; test: as above
Outline: as §1

[11] = test system: CAL-148; test: as above
Outline: as §1

[12] = test system: DU-4475; test: as above
Outline: as §1

[13] = test system: MFM-223; test: as above
Outline: as §1

[14] = test system: BT-549; test: as above
Outline: as §1

[15] = test system: HCC1599; test: as above
Outline: as §1

[16] = test system: MCF-10A; test: as above
Outline: as §1

[17] = test system: HDQ-P1; test: as above
Outline: as §1

[18] = test system: CAL-51; test: as above
Outline: as §1

[19] = test system: MDA-MB-468; test: as above
Outline: as §1

[20] = test system: MDA-MB-453; test: normalised response (% of control), CellTox Green; higher = less cell death (100 = DMSO, 0 = benzethonium chloride kill control)
Outline: as §1

[21] = test system: MDA-MB-231; test: as above
Outline: as §1

[22] = test system: HCC1937; test: as above
Outline: as §1

[23] = test system: Hs578T; test: as above
Outline: as §1

[24] = test system: MDA-MB-436; test: as above
Outline: as §1

[25] = test system: CAL-85-1; test: as above
Outline: as §1

[26] = test system: CAL-120; test: as above
Outline: as §1

[27] = test system: BT-474; test: as above
Outline: as §1

[28] = test system: HCC1143; test: as above
Outline: as §1

[29] = test system: CAL-148; test: as above
Outline: as §1

[30] = test system: DU-4475; test: as above
Outline: as §1

[31] = test system: MFM-223; test: as above
Outline: as §1

[32] = test system: BT-549; test: as above
Outline: as §1

[33] = test system: HCC1599; test: as above
Outline: as §1

[34] = test system: MCF-10A; test: as above
Outline: as §1

[35] = test system: HDQ-P1; test: as above
Outline: as §1

[36] = test system: CAL-51; test: as above
Outline: as §1

[37] = test system: MDA-MB-468; test: as above
Outline: as §1

Compound | normalised response [1] | normalised response [2] | normalised response [3] | normalised response [4] | normalised response [5] | normalised response [6] | normalised response [7] | normalised response [8] | normalised response [9] | normalised response [10] | normalised response [11] | normalised response [12] | normalised response [13] | normalised response [14] | normalised response [15] | normalised response [16] | normalised response [17] | normalised response [18] | normalised response [19] | normalised response [20] | normalised response [21] | normalised response [22] | normalised response [23] | normalised response [24] | normalised response [25] | normalised response [26] | normalised response [27] | normalised response [28] | normalised response [29] | normalised response [30] | normalised response [31] | normalised response [32] | normalised response [33] | normalised response [34] | normalised response [35] | normalised response [36] | normalised response [37]
Cc1ccc([N+](=O)[O-])cc1S(=O)(=O)N(C)/N=C/c1cnc2ccc(Br)cn12 [PIK-75] (100 nM) | 56% | 8.41% | 19.3% | 36.9% | 14.7% | 11.2% | 14.4% | 38.3% | 18.7% | 38.8% | 44.8% | 8.8% | 31.3% | 8.06% | 47.9% | 10.5% | 22.1% | 12.6% | 14.4% | 101% | -1.87% | 78.6% | 17.7% | 50.7% | 22% | 85.3% | 78.3% | 89.3% | 36.5% | 71.8% | 84% | 65.2% | 79.3% | 17.8% | 77.6% | 7.25% | 84.6%
Nc1ncn([C@@H]2O[C@H](CO)[C@@H](O)[C@H]2O)c(=O)n1 [Azacitidine] (100 nM) | 89% | 98.1% | 96% | 97% | 100% | 99% | 99.1% | 96.3% | 102% | 98.6% | 101% | 91.1% | 98% | 101% | 100% | 103% | 103% | 99.8% | 96.4% | 83.8% | 88.1% | 99.4% | 103% | 79.5% | 108% | 96.9% | 101% | 56% | 103% | 98.2% | 97.8% | 99.9% | 98% | 87% | 64.8% | 99.3% | 115%
O=NN(CCCl)C(=O)NCCCl [Carmustine] (100 nM) | 101% | 97.3% | 99.7% | 95.8% | 105% | 101% | 101% | 95.5% | 97.7% | 100% | 92.3% | 101% | 98.3% | 111% | 88% | 92.5% | 100% | 85% | 101% | 91.5% | 100% | 103% | 100% | 61.7% | 101% | 95.2% | 99.1% | 101% | 100% | 95.1% | 101% | 90.8% | 97.9% | 93.4% | 106% | 99.1% | 52.9%
CC(=O)O[C@@]12CO[C@@H]1C[C@H](O)[C@@]1(C)C(=O)[C@H](O)C3=C(C)[C@@H](OC(=O)[C@H](O)[C@@H](NC(=O)OC(C)(C)C)c4ccccc4)C[C@@](O)([C@@H](OC(=O)c4ccccc4)[C@H]21)C3(C)C [Docetaxel] (10 nM) | 61.2% | 53.4% | 12.2% | 67.3% | 28.1% | 40.7% | 26.6% | 61.7% | 67.8% | 35.5% | 38.2% | 68.8% | 54.3% | 20.5% | 71.9% | 46.2% | 69.4% | 43.1% | 22.7% | 99.3% | -111% | 24.7% | 39.5% | 79.8% | 26.6% | 88.8% | 65.8% | 88.9% | 61.8% | 94% | 77.9% | 63.4% | 95.8% | 56.1% | -5.27% | 11.5% | 104%
O=C1CN2Cc3c(ccc(Cl)c3Cl)N=C2N1 [Anagrelide] (100 nM) | 111% | 94.7% | 103% | 95.8% | 98.5% | 94.3% | 97% | 96% | 93.7% | 101% | 94.1% | 96.9% | 101% | 105% | 104% | 98.4% | 97.2% | 63.1% | 99.5% | 92.5% | 96.2% | 103% | 104% | 105% | 104% | 98% | 99.4% | 108% | 100% | 98.5% | 68.7% | 77.3% | 86.8% | 100% | 101% | 51.3% | 146%
